How the values were obtained:
[1] = Inhibition of norovirus 3CLpro using Edans-DFHLQ/GP-Dabcyl as substrate preincubated for 30 mins followed by substrate addition by FRET assay
Genome polyprotein = Genome polyprotein (Coxsackievirus B3 (strain Nancy), UniProt P03313); test: Inhibition of Coxsackievirus B3 Nancy 3Cpro
Replicase polyprotein 1a = Replicase polyprotein 1a (Severe acute respiratory syndrome-related coronavirus, UniProt P0C6U8); test: Inhibition of SARS coronavirus 3CLpro using Dabcyl-KTSAVLQ/SGFRKME-Edans as substrate preincubated for 30 mins followed by substrate addition by FRET assay

Chain of Genome polyprotein (P03313 1541-1723 limits assumed): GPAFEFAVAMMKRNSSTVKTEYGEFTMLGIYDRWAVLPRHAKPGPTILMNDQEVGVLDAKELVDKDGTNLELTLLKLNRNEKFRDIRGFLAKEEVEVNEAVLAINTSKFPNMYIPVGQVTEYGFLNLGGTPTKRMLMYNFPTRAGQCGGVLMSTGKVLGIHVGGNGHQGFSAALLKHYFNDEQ

Q: With CC(C)C[C@@H]1NC(=O)[C@@H](NC(=O)OCc2ccccc2)Cc2cn(nn2)CCCNC(=O)CC[C@@H](C=O)NC1=O as the compound, how does the IC50 [1] read?
A: 5.1 µM

Q: And the IC50 (Genome polyprotein)?
A: 1.8 µM

Q: What about the IC50 (Replicase polyprotein 1a) of the same compound?
A: 15.5 µM
